Consider six compounds from patent publication US6677326B2 (Arakis, Ltd., priority 1999, dated 2004).

The conditions of data set [1]: BNF 37 March 1999; non-chronotherapeutic; cited from earlier work.
Data set [2] is described as follows: Proposed equivalent dose in chronotherapeutic administration. The note with it: proposed clinical dose.
For a further data set, the system named is hyaluronate (HA). Kind of data set: Same study: serum hyaluronate concentration at 08.30. The format is in vivo, patients. The note with it: mean, serum 08.30. The arrangement: unit not given beside the values.
Another data set has as its system IL-6. Put plainly: Same study: serum IL-6 concentration at 08.30. The format is in vivo, patients.
A further data set deals with C-reactive protein (CRP). Put plainly: Same study: serum C-reactive protein at 08.30. The format is in vivo, patients.
Data set [3] relates to patients with rheumatoid arthritis. Put plainly: Assessor-blind study of prednisolone 1 mg and 5 mg given at 02.00: clinical outcomes. It is filed as in vivo. The note with it: for More or Less (arthritis worse: -1 morning, 0 equal, +1 afternoon) / Pain (VAS) / Painful Joints (tender joint count, n=28) / Swollen Joints (swollen joint count, n=28) / Cln Opn (clinician opinion of condition, VAS) / EMS (morning stiffness) / Pt Opn (patient opinion of condition, VAS): mean; for Pain (VAS) / Painful Joints (tender joint count, n=28) / Swollen Joints (swollen joint count, n=28): 08.30; for Cln Opn (clinician opinion of condition, VAS) / EMS (morning stiffness) / Pt Opn (patient opinion of condition, VAS): 12.00. The text has this: Patients stayed the night in hospital but were free to be up and about and to leave the hospital during the day. […] Blood samples and clinical assessments were made at 08.30 and further clinical assessments related to symptoms on the day of drug administration at 12.00 and 08.30 the following day (except the final day when this last assessment was made before departure from the hospital). […] Patients went home on Friday afternoon but returned the following Monday to repeat the procedure. […] The patient and assessor were not aware of which dose was given.
Clinical: Outcome was measured at 08.30 each day for: swollen joint count (n=28); tender joint count (n=28); pain (0.100 mm, VAS). Outcome was measured at 12.00 each day for: morning stiffness (minutes); patient opinion of condition (0-100 mm, VAS); clinician opinion of condition (0-100 mm, VAS). Outcome was measured the following day for: whether the arthritis was worse in the morning or afternoon on the previous day (−1 morning, 0 equal, +1 afternoon).
The assessor was not aware of the treatment order allocation (and probably remained blind), but no placebo tablets were used and it was possible for a patient to be un-blind.
Informed consent was obtained and the patient prescription written by a doctor not associated with trial evaluation. Medication was dispensed at 2 a.m. on each treatment day after gently waking the patient. The patient was encouraged to settle back to sleep immediately.
On the morning before medication and on each morning on the day of medication, blood samples were taken at 8.30 a.m. and outcome assessments recorded then, and at noon, as indicated above.
Symptoms, signs and laboratory results were compared within and between patients, but the main assessment was visual inspection of the overall pattern of response. Means and standard deviations were used to define variation rates and for calculating trial size for future studies. An overall assessment of practicality and the potential for more frequent (but smaller volume) blood taking was made by discussion amongst the staff and patients involved.
This patient's assessments have been included normally in the first week, but in the second week they have been used differently.

The conditions of data set [4]: human, in vivo, 1.25 mg.
In a further data set the test system is rheumatoid arthritis. Conditions: daily dosage of 7.5 mg; Kirwan 1995; cited from earlier work.
For data set [5] the following is noted: BNF 37 March 1999; cited from earlier work.
Setting [6] is: Dose 1 mg at 02.00, Day 1, mean, serum 08.30.
Setting [7] is: Dose 1 mg at 02.00, Day 2, mean, serum 08.30.
[8] abbreviates: Dose 1 mg at 02.00, Day 3, mean, serum 08.30.
The mark [9] stands for this setting: Dose 5 mg at 02.00, Day 11, mean, serum 08.30.
Where [10] appears, read: Dose 5 mg at 02.00, Day 12, mean, serum 08.30.
Where [11] appears, read: Dose 5 mg at 02.00, Day 13, mean, serum 08.30.
Where [12] appears, read: 1 mg prednisolone, three patients.

Experimental for C-reactive protein (CRP): (§1) Serological: Serum samples were obtained at 08.30, kept on ice for up to 1 hour, separated and stored at −70° C. to measure: C-reactive protein (CRP); IL-6 concentration; IL-6 soluble receptor (IL-6sR) concentration; hyaluronate (HA) concentration.
Experimental for IL-6: as §1
Experimental for hyaluronate (HA): as §1

For the compound `CC(=O)OCC(=O)[C@@]1(O)CC[C@H]2[C@@H]3CCC4=CC(=O)CC[C@]4(C)[C@H]3C(=O)C[C@@]21C` [cortisone acetate], the “Dose equal to 5 mg prednisolone (Normal dosing)” value (shortened to “Dose equal to 5 mg prednisolone”) in [1] is 25 mg. Besides, in data set [2], the “Equivalent dose in chronotherapeutic administration, equal to 1 mg prednisolone” value (shortened to “Equivalent dose”) is 5 mg.
Consider `CC(=O)OCC(=O)[C@@]12N=C(C)O[C@@H]1C[C@H]1[C@@H]3CCC4=CC(=O)C=C[C@]4(C)[C@H]3[C@@H](O)C[C@@]12C` [deflazacort], for which the “Dose equal to 5 mg prednisolone” value in [1] is recorded as 6 mg. The “Equivalent dose” value in data set [2] stood at 1.2 mg.
For the compound `C[C@]12CCC(=O)C=C1CC[C@@H]1[C@@H]2[C@@H](O)C[C@@]2(C)[C@H]1CC[C@]2(O)C(=O)CO` [hydrocortisone], the “Dose equal to 5 mg prednisolone” value in data set [1] was 20 mg. Moreover, the “Equivalent dose” value in data set [2] stood at 4 mg.
As for `C[C@]12C=CC(=O)C=C1CC[C@@H]1[C@@H]2[C@@H](O)C[C@@]2(C)[C@H]1CC[C@]2(O)C(=O)CO` [prednisolone], the HA in the data set with hyaluronate (HA) (Dose 1 mg at 02.00, Day 1) was found to be 241.9; with hyaluronate (HA) (Dose 1 mg at 02.00, Day 2), 320.3; in the data set with hyaluronate (HA) (Dose 1 mg at 02.00, Day 3) it was 372.5; in the data set on hyaluronate (HA) (Dose 5 mg at 02.00, Day 11) it was 322.5; in the data set with hyaluronate (HA) (Dose 5 mg at 02.00, Day 12), 339.5; in the data set with hyaluronate (HA) (Dose 5 mg at 02.00, Day 13) it was 193.9. The IL-6 result is reported as “tendency for reduction” in the data set with IL-6 (1 mg prednisolone); “reduced significantly” in the data set with IL-6 (5 mg prednisolone); 28.1 with IL-6 (setting [6]); 31.1 in the data set on IL-6 (setting [7]); 22.8 with IL-6 (setting [8]); 30.3 in the data set with IL-6 (setting [9]). Further, the figures for the IL-6 with IL-6 (setting [10]) and in the data set on IL-6 (setting [11]) were 18.5 and 13.8, respectively. The CRP result is listed as “tendency for reduction” with C-reactive protein (CRP) (1 mg prednisolone); “reduced significantly” in the data set with C-reactive protein (CRP) (5 mg prednisolone); 35.5 in the data set with C-reactive protein (CRP) (setting [6]); 31.2 in the data set with C-reactive protein (CRP) (setting [7]); 25.8 with C-reactive protein (CRP) (setting [8]); 36.6 in the data set with C-reactive protein (CRP) (setting [9]). The CRP with C-reactive protein (CRP) (setting [10]) came to 31.1; with C-reactive protein (CRP) (setting [11]) it was 19.1. In [3] (setting [12]), the EMS result is “statistically significantly reduced”. For the same compound, in data set [3] (setting [12]), the Pain entry is listed as “statistically significantly reduced”. In addition, the “clinician's opinion” value in data set [3] (setting [12]) was “statistically significantly reduced”. Also, the “patient's opinion” value in [3] (setting [12]) is recorded as “statistically significantly reduced”. Also, in [3] (5 mg prednisolone at 02.00), the “Overall results compared with Arvidson et al.” value is on record as “well within the range of findings published by Arvidson et al”. Besides, the “More or Less (arthritis worse: -1 morning, 0 equal, +1 afternoon)” value is −0.7 in [3] (Dose 1 mg at 02.00, Day 1); −0.7 in data set [3] (Dose 1 mg at 02.00, Day 2); 0.0 in data set [3] (Dose 1 mg at 02.00, Day 3); −0.3 in data set [3] (Dose 5 mg at 02.00, Day 11); −0.3 in [3] (Dose 5 mg at 02.00, Day 12); −0.7 in [3] (Dose 5 mg at 02.00, Day 13). Besides, the “Pain (VAS)” value is recorded as 26.0 mm in [3] (Dose 1 mg at 02.00, Day 1); 20.3 mm in data set [3] (Dose 1 mg at 02.00, Day 2); 16.7 mm in [3] (Dose 1 mg at 02.00, Day 3); 19.7 mm in data set [3] (Dose 5 mg at 02.00, Day 11); 15.7 mm in [3] (Dose 5 mg at 02.00, Day 12); 16.0 mm in data set [3] (Dose 5 mg at 02.00, Day 13). The “Painful Joints (tender joint count, n=28)” value in data set [3] (Dose 1 mg at 02.00, Day 1) worked out at 20.0; in data set [3] (Dose 1 mg at 02.00, Day 2), 20.3; in data set [3] (Dose 1 mg at 02.00, Day 3), 20.3; in [3] (Dose 5 mg at 02.00, Day 11), 19.0; in data set [3] (Dose 5 mg at 02.00, Day 12), 19.7; in data set [3] (Dose 5 mg at 02.00, Day 13), 19.7. In addition, the “Swollen Joints (swollen joint count, n=28)” value in data set [3] (Dose 1 mg at 02.00, Day 1) stood at 18.7; in data set [3] (Dose 1 mg at 02.00, Day 2) it was 18.7; in data set [3] (Dose 1 mg at 02.00, Day 3), 18.3; in data set [3] (Dose 5 mg at 02.00, Day 11), 18.0; in [3] (Dose 5 mg at 02.00, Day 12) it was 17.3; in data set [3] (Dose 5 mg at 02.00, Day 13), 14.0. Besides, the “Cln Opn (clinician opinion of condition, VAS)” value in data set [3] (Dose 1 mg at 02.00, Day 1) is reported as 28.7 mm; in data set [3] (Dose 1 mg at 02.00, Day 2), 29.3 mm; in data set [3] (Dose 1 mg at 02.00, Day 3), 16.3 mm; in data set [3] (Dose 5 mg at 02.00, Day 11) it was 27.7 mm; in data set [3] (Dose 5 mg at 02.00, Day 12) it was 15.7 mm; in data set [3] (Dose 5 mg at 02.00, Day 13), 11.7 mm. Further, the “EMS (morning stiffness)” value amounted to 55.0 min in [3] (Dose 1 mg at 02.00, Day 1); 51.7 min in data set [3] (Dose 1 mg at 02.00, Day 2); 40.0 min in [3] (Dose 1 mg at 02.00, Day 3); 30.0 min in [3] (Dose 5 mg at 02.00, Day 11); 20.0 min in data set [3] (Dose 5 mg at 02.00, Day 12); 33.3 min in [3] (Dose 5 mg at 02.00, Day 13). For the same compound, the “Pt Opn (patient opinion of condition, VAS)” value is given as 23.7 mm in data set [3] (Dose 1 mg at 02.00, Day 1); 26.7 mm in data set [3] (Dose 1 mg at 02.00, Day 2); 12.7 mm in [3] (Dose 1 mg at 02.00, Day 3); 19.3 mm in [3] (Dose 5 mg at 02.00, Day 11); 11.7 mm in data set [3] (Dose 5 mg at 02.00, Day 12); 13.3 mm in [3] (Dose 5 mg at 02.00, Day 13). Further, the “time to Cmax or Tmax” value in data set [4] was 1 to 3 h. Further, in the data set on rheumatoid arthritis, the “Efficacy in rheumatoid arthritis” value is recorded as “effective”.
Consider `C[C@]12C=CC(=O)C=C1CC[C@H]1[C@@H]3C[C@@H](O)[C@](O)(C(=O)CO)[C@@]3(C)C[C@H](O)[C@@]12F` [triamcinolone], for which, in data set [5], the “Broadly similar dose in nasal administration” value is 110 µg. Moreover, the “Dose equal to 5 mg prednisolone” value in [1] is given as 4 mg. The “Equivalent dose” value in data set [2] worked out at 0.8 mg.
For the compound methyl prednisone, in data set [1], the “Dose equal to 5 mg prednisolone” value was 4 mg. Moreover, in [2], the “Equivalent dose” value came out at 0.8 mg.
